According to ChEMBL document CHEMBL3885861, “Open TG-GATES”:

Species: Rattus norvegicus
Test: Open TG-GATES - Regimen: Single
Format: toxicity, organism-based, Sprague-Dawley
Design: regimen Single, gender Male, age 6 weeks
Details: in vivo, po, 0 mg/kg, route gavage, dose level Control; for APTT / Bas / Eos / Fbg / Hb / Ht / Lym / MCH / MCHC / MCV / Mono / Neu / PT / Plat / RBC / Ret / WBC: tissue Blood; for KIDNEY_L / KIDNEY_R / KIDNEY_TOTAL: tissue Kidney; for LIVER: tissue Liver; for A/G / ALP / ALT / AST / BUN / CRE / Ca / Cl / DBIL / GLC / IP / K / LDH / Na / PL / RALB / TBIL / TC / TG / TP / gamma-GTP: tissue Plasma

CCCc1cc(=O)[nH]c(=S)[nH]1 [PROPYLTHIOURACIL]
TERMINAL_BW (3 h): 182.7 g
APTT (3 h): 15.8 s
Bas (3 h): 0%
Eos (3 h): 1%
Fbg (3 h): 217.4 mg/dL
Hb (3 h): 13.2 g/dL
Ht (3 h): 39.8%
Lym (3 h): 78.6%
MCH (3 h): 22.3 pg
MCHC (3 h): 33.3%
MCV (3 h): 67.1 fL
Mono (3 h): 6.2%
Neu (3 h): 14.6%
PT (3 h): 12.6 s
Plat (3 h): 108.3 x10_4/uL
RBC (3 h): 593.2 x10_4/ul
Ret (3 h): 10.7%
WBC (3 h): 86.3 x10_2/uL
KIDNEY_L (3 h): 0.8 g
KIDNEY_R (3 h): 0.8 g
KIDNEY_TOTAL (3 h): 1.7 g
LIVER (3 h): 8.7 g
A/G (3 h): 2
ALP (3 h): 886.8 IU/L
ALT (3 h): 39.6 IU/L
AST (3 h): 69.8 IU/L
BUN (3 h): 13.2 mg/dL
CRE (3 h): 0.4 mg/dL
Ca (3 h): 11 mg/dL
Cl (3 h): 105 meq/L
DBIL (3 h): 0.024 mg/dL
GLC (3 h): 192.6 mg/dL
IP (3 h): 9.9 mg/dL
K (3 h): 5 meq/L
LDH (3 h): 87.6 IU/L
Na (3 h): 138.6 meq/L
PL (3 h): 140.2 mg/dL
RALB (3 h): 3.6 g/dL
TBIL (3 h): 0.3 mg/dL
TC (3 h): 82.4 mg/dL
TG (3 h): 37.2 mg/dL
TP (3 h): 5.5 g/dL
gamma-GTP (3 h): 0.8 IU/L
TERMINAL_BW (6 h): 178.3 g
APTT (6 h): 16.1 s
Bas (6 h): 0%
Eos (6 h): 0%
Fbg (6 h): 206.8 mg/dL
Hb (6 h): 13 g/dL
Ht (6 h): 39.3%
Lym (6 h): 80%
MCH (6 h): 21.5 pg
MCHC (6 h): 33.1%
MCV (6 h): 64.8 fL
Mono (6 h): 6.4%
Neu (6 h): 13.6%
PT (6 h): 12.6 s
Plat (6 h): 107.1 x10_4/uL
RBC (6 h): 606.2 x10_4/ul
Ret (6 h): 10.4%
WBC (6 h): 111.4 x10_2/uL
KIDNEY_L (6 h): 0.8 g
KIDNEY_R (6 h): 0.8 g
KIDNEY_TOTAL (6 h): 1.6 g
LIVER (6 h): 7.9 g
A/G (6 h): 2.2
ALP (6 h): 853.4 IU/L
ALT (6 h): 34.2 IU/L
AST (6 h): 66.8 IU/L
BUN (6 h): 11.8 mg/dL
CRE (6 h): 0.5 mg/dL
Ca (6 h): 10.7 mg/dL
Cl (6 h): 105.2 meq/L
DBIL (6 h): 0.046 mg/dL
GLC (6 h): 182 mg/dL
IP (6 h): 10 mg/dL
K (6 h): 5 meq/L
LDH (6 h): 82.2 IU/L
Na (6 h): 137.6 meq/L
PL (6 h): 136.6 mg/dL
RALB (6 h): 3.6 g/dL
TBIL (6 h): 0.3 mg/dL
TC (6 h): 80 mg/dL
TG (6 h): 33.4 mg/dL
TP (6 h): 5.4 g/dL
gamma-GTP (6 h): 1.8 IU/L
TERMINAL_BW (9 h): 175.9 g
APTT (9 h): 16 s
Bas (9 h): 0%
Eos (9 h): 1.2%
Fbg (9 h): 215.4 mg/dL
Hb (9 h): 13.1 g/dL
Ht (9 h): 39.7%
Lym (9 h): 77.8%
MCH (9 h): 22 pg
MCHC (9 h): 33.1%
MCV (9 h): 66.2 fL
Mono (9 h): 6.2%
Neu (9 h): 15.2%
PT (9 h): 12.5 s
Plat (9 h): 107.3 x10_4/uL
RBC (9 h): 599.2 x10_4/ul
Ret (9 h): 10.2%
WBC (9 h): 95.1 x10_2/uL
KIDNEY_L (9 h): 0.8 g
KIDNEY_R (9 h): 0.9 g
KIDNEY_TOTAL (9 h): 1.7 g
LIVER (9 h): 7.6 g
A/G (9 h): 2
ALP (9 h): 741.2 IU/L
ALT (9 h): 33.6 IU/L
AST (9 h): 61.8 IU/L
BUN (9 h): 13.8 mg/dL
CRE (9 h): 0.5 mg/dL
Ca (9 h): 10.6 mg/dL
Cl (9 h): 107.4 meq/L
DBIL (9 h): 0.006 mg/dL
GLC (9 h): 195.4 mg/dL
IP (9 h): 11.1 mg/dL
K (9 h): 5.2 meq/L
LDH (9 h): 102.4 IU/L
Na (9 h): 139.8 meq/L
PL (9 h): 132.2 mg/dL
RALB (9 h): 3.6 g/dL
TBIL (9 h): 0.4 mg/dL
TC (9 h): 76 mg/dL
TG (9 h): 35.6 mg/dL
TP (9 h): 5.5 g/dL
gamma-GTP (9 h): 2.2 IU/L
TERMINAL_BW (24 h): 192.6 g
APTT (24 h): 16.1 s
Bas (24 h): 0%
Eos (24 h): 1%
Fbg (24 h): 211.2 mg/dL
Hb (24 h): 13.2 g/dL
Ht (24 h): 40%
Lym (24 h): 76.6%
MCH (24 h): 21.6 pg
MCHC (24 h): 33%
MCV (24 h): 65.5 fL
Mono (24 h): 9%
Neu (24 h): 13.6%
PT (24 h): 12.4 s
Plat (24 h): 104.6 x10_4/uL
RBC (24 h): 611.6 x10_4/ul
Ret (24 h): 9.6%
WBC (24 h): 123.5 x10_2/uL
KIDNEY_L (24 h): 0.8 g
KIDNEY_R (24 h): 0.9 g
KIDNEY_TOTAL (24 h): 1.7 g
LIVER (24 h): 9.1 g
A/G (24 h): 2
ALP (24 h): 974.2 IU/L
ALT (24 h): 46.2 IU/L
AST (24 h): 70.2 IU/L
BUN (24 h): 19.2 mg/dL
CRE (24 h): 0.6 mg/dL
Ca (24 h): 10.9 mg/dL
Cl (24 h): 105.2 meq/L
DBIL (24 h): 0.016 mg/dL
GLC (24 h): 196.6 mg/dL
IP (24 h): 7.9 mg/dL
K (24 h): 5 meq/L
LDH (24 h): 86.6 IU/L
Na (24 h): 138.6 meq/L
PL (24 h): 152.8 mg/dL
RALB (24 h): 3.7 g/dL
TBIL (24 h): 0.3 mg/dL
TC (24 h): 83.2 mg/dL
TG (24 h): 96.2 mg/dL
TP (24 h): 5.6 g/dL
gamma-GTP (24 h): 2.4 IU/L
